{
  "source": "patent US20080293679A1",
  "about": "“Use of carotenoids and/or carotenoid derivatives/analogs for reduction/inhibition of certain negative effects of COX inhibitors” (priority 2005, published 2008)",
  "format_in_all_cases": "biochemical",
  "key": {"[1]": {"assay": "Lipid peroxide (LOOH) formation in DAPC lipid vesicles with cholesterol (triiodide assay)", "method": "The ability of astaxanthin to block the pro-oxidant effects of rofecoxib was tested in lipid vesicles reconstituted from DAPC (10 mg/ml) in physiologic buffer (0.5 mM HEPES, 154 mM NaCl, pH=7.32). The lipid vesicles also contained cholesterol at a level that reproduced physiologic conditions (0.2 cholesterol to phospholipid mole ratio). The drug effects were tested in the vesicles following addition of astaxanthin, rofecoxib or the combination of these two agents at an identical concentration (250 nM). To measure lipid peroxide (LOOH) formation, we used an assay that measures the conversion of I2 to I3^− (triiodide). This reaction takes place in the presence of LOOH in a manner that can be measured photometrically at 365 nm, El-Saadani, 1989. […] The lipid peroxidation reaction occurs gradually under normal atmospheric oxygen conditions in a shaking water bath (37° C.)."}, "[2]": {"assay": "Peroxidation study in DLPC multilamellar vesicles, C/P 0.6", "conditions": "C/P 0.6, carotenoid 10 μM, 48 hour", "method": "1. Samples were prepared in a glass test tube as described in the table above. This gives a cholesterol/DLPC mole ratio of 0.6 and a final concentration of 10 μM for the carotenoids. Equal volumes of vehicle (20 μl chloroform) were added to control samples. 2. All samples were dried down under a steady stream of nitrogen gas while vortexing. 3. Samples were placed in a vacuum desiccator for 2 hours to remove residual solvent and protected from light. 4. Multi-lamellar vesicles (MLVs) were prepared by the method developed by Bangham and Standish (1965). After samples were removed from the vacuum desiccator, they were immediately resuspended in 1 ml of diffraction buffer warmed to room temperature and vortexed for 3 minutes to form MLVs.\nThis assay is based on the principle of the oxidative capacity of lipid peroxides to convert I2 to I3^− (triiodide), which can be measured photometrically at 365 nm (el-Saadani et al., 1989). This assay is sensitive to peroxide concentrations as low as 10 μM.\n1. Samples were placed in a water bath set at 37° C. throughout the experiment. 2. Aliquots of a sample (20 μl) were extracted at a 48 hour time point as described in the table below.\n3. After combining the samples with CHOD active reagent and the diffraction buffer, test samples were incubated for about 6 hours in darkness at ambient temperature. 4. The absorbance of a sample was measured photometrically at 365 nm.\nConcentrations of lipid peroxides were calculated by the use of the molar absorptivity of I3^− measured at 365 nm (ε=2.46±0.25×10^4M^−1 cm^−1). This value was determined by adding known concentrations of […] to the CHOD reagent. A stoichiometric relationship (slope=1.02) was observed between the amount of organic peroxides assayed and the concentration of I3^− produced."}, "[3]": {"assay": "Lipid peroxide levels in DLPC multilamellar vesicles, C/P 0.2 (triiodide assay)", "conditions": "for Lipid Peroxide Levels: mean ± S.D.", "method": "The levels of lipid peroxide formation were measured photometrically at specific time points. […] Samples were prepared in a glass test tube as described in the table above. […] Sample tubes were vortexed for 3 min to form MLVs. This assay is based on the principle of the oxidative capacity of lipid peroxides to convert […], which can be measured photometrically at […] (El-Saadani et al., 1989). […] Samples were placed in a water bath set at 37° C. Samples remained in the water bath throughout the experiment except for the temporary removal for time point extractions. • 2. […] • 3. After combining sample time point aliquots with CHOD active reagent and the diffraction buffer as described in the table above, test samples were incubated about 6 hours in darkness at ambient temperature. • 4. The absorbance ([…] nm) of the samples was measured using a spectrophotometer. • 5. […] This value was determined by adding known concentrations of I2 to the CHOD reagent. A stoichiometric relationship (slope=1.02) was observed between the amount of organic peroxides assayed and the concentration of I3^- produced."}},
  "note": "Marks after values point to notes of the source that are not given here.",
  "data": [
    {"smiles": "CC1=C(/C=C/C(C)=C/C=C/C(C)=C/C=C/C=C(C)/C=C/C=C(C)/C=C/C2=C(C)C(=O)[C@@H](O)CC2(C)C)C(C)(C)C[C@H](O)C1=O", "note": "[Astaxanthin, 3,3′-dihydroxy-β,β′-carotene-4,4′-dione]", "values": [
      {"measurement": "decrease in lipid peroxidation vs control", "setting": "[1]; added together with rofecoxib at equimolar concentration (250 nM)", "result": 6.5, "unit": "%"},
      {"measurement": "decrease in lipid peroxidation vs control", "setting": "[1]; alone at 250 nM, 48 hour incubation at 37° C.", "result": 4.4, "unit": "%"},
      {"measurement": "antioxidant/prooxidant activity", "setting": "[2]", "result": "the only antioxidant"},
      {"measurement": "% increase (+) or decrease (−) of lipid peroxide levels compared to control", "setting": "[3]; 24 Hour, carotenoid 1 μM", "result": "−6.9", "unit": "%^a"},
      {"measurement": "Lipid Peroxide Levels", "setting": "[3]; 24 Hour, carotenoid 1 μM, control 218 ± 20", "result": "203 ± 17", "unit": "µM"},
      {"measurement": "% increase (+) or decrease (−) of lipid peroxide levels compared to control", "setting": "[3]; 24 Hour, carotenoid 10 μM", "result": "−22.5", "unit": "%"},
      {"measurement": "Lipid Peroxide Levels", "setting": "[3]; 24 Hour, carotenoid 10 μM, control 218 ± 20", "result": "169 ± 7", "unit": "µM"},
      {"measurement": "% increase (+) or decrease (−) of lipid peroxide levels compared to control", "setting": "[3]; 48 Hour, carotenoid 1 μM", "result": "−12.6", "unit": "%^a"},
      {"measurement": "Lipid Peroxide Levels", "setting": "[3]; 48 Hour, carotenoid 1 μM, control 572 ± 76", "result": "500 ± 57", "unit": "µM"},
      {"measurement": "% increase (+) or decrease (−) of lipid peroxide levels compared to control", "setting": "[3]; 48 Hour, carotenoid 10 μM", "result": "−40.7", "unit": "%^a"},
      {"measurement": "Lipid Peroxide Levels", "setting": "[3]; 48 Hour, carotenoid 10 μM, control 572 ± 76", "result": "339 ± 42", "unit": "µM"},
      {"measurement": "antioxidant/pro-oxidant effect", "setting": "[3]; C/P 0.2", "result": "strong antioxidant effect"}
    ]}
  ]
}
